{
  "source": "patent US10472347B2",
  "about": "“Aminopyrazine compounds with A2A antagonist properties” (Merck Sharp & Dohme Corp., priority 2014, dated 2019)",
  "data": [
    {"target": "T1, human A2a receptor (Homo sapiens, UniProt P29274)", "T1 construct": "purchased Perkin-Elmer RBHA2AM400UA; host or cells: HEK293 cells (membranes)", "T1 sequence (P29274 whole entry)": "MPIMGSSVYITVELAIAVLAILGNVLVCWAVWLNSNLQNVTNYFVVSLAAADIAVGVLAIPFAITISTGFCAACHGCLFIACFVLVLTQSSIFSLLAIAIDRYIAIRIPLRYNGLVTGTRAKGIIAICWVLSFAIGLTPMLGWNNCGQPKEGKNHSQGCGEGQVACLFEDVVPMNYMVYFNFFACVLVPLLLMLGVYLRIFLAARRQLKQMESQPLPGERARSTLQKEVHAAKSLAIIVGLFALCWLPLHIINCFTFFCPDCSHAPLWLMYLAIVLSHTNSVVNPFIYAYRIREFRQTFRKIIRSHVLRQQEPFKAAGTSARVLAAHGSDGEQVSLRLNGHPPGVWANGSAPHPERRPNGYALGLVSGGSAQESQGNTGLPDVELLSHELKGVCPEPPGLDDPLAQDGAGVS", "assay": "A2a competition binding assay, Scintillation Proximity technology", "conditions": "membranes from HEK293 cells expressing human A2a receptor; Ki by Cheng-Prusoff equation", "how_it_was_run": "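SPA competition: 0.5 nM tritiated pyrazolotriazolopyrimidine ligand displaced by compound at 3000 to 0.15 nM, 1 h room temperature, human A2a HEK293 membranes pretreated with adenosine deaminase, PBS/10 mM MgCl2 buffer. CGS15943 1 μM defined non-specific binding; EC50 converted to Ki via Cheng-Prusoff.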", "units": {"Ki": "nM"}, "values": [
      {"smiles": "Nc1nc(-n2nccn2)c(Cl)nc1C(=O)N[C@@H](c1ccccc1)C(F)(F)F", "note": "[Ex-286, 3-amino-6-chloro-5-(2H-1,2,3-triazol-2-yl)-N-[(1S)-2,2,2-trifluoro-1-phenylethyl]pyrazine-2-carboxamide]", "Ki": 124},
      {"smiles": "C[C@@H](NC(=O)c1nc(Cl)c(-n2nccn2)nc1N)c1ccc2ccccc2n1", "note": "[Ex-287, 3-amino-6-chloro-N-[(1R)-1-quinolin-2-ylethyl]-5-(2H-1,2,3-triazol-2-yl)pyrazine-2-carboxamide]", "Ki": 131},
      {"smiles": "Nc1nc(-n2nccn2)c(Cl)nc1C(=O)NCc1ccccc1Br", "note": "[Ex-288, 3-amino-N-(2-bromobenzyl)-6-chloro-5-(2H-1,2,3-triazol-2-yl)pyrazine-2-carboxamide]", "Ki": 1.9},
      {"smiles": "Nc1nc(-n2nccn2)c(Cl)nc1C(=O)NCCc1ccccc1Br", "note": "[Ex-289, 3-amino-N-[2-(2-bromophenyl)ethyl]-6-chloro-5-(2H-1,2,3-triazol-2-yl)pyrazine-2-carboxamide]", "Ki": 34.8},
      {"smiles": "CN(Cc1cccc2cccnc12)C(=O)c1nc(Cl)c(-n2nccn2)nc1N", "note": "[Ex-290, 3-amino-6-chloro-N-methyl-N-(quinolin-8-ylmethyl)-5-(2H-1,2,3-triazol-2-yl)pyrazine-2-carboxamide]", "Ki": 318},
      {"smiles": "Nc1nc(-n2nccn2)c(Cl)nc1C(=O)N1CCc2cccc(Br)c2C1", "note": "[Ex-292, 3-[(8-bromo-3,4-dihydroisoquinolin-2(1H)-yl)carbonyl]-5-chloro-6-(2H-1,2,3-triazol-2-yl)pyrazin-2-amine]", "Ki": 54.8},
      {"smiles": "Nc1nc(-n2nccn2)c(Cl)nc1C(=O)NC1CCNc2ccccc21", "note": "(stereo not drawn) [Ex-293, 3-amino-6-chloro-N-(1,2,3,4-tetrahydroquinolin-4-yl)-5-(2H-1,2,3-triazol-2-yl)pyrazine-2-carboxamide]", "Ki": 107},
      {"smiles": "COc1ccc(CCNC(=O)c2nc(Cl)c(-n3nccn3)nc2N)cc1OC", "note": "[Ex-294, 3-amino-6-chloro-N-[2-(3,4-dimethoxyphenyl)ethyl]-5-(2H-1,2,3-triazol-2-yl)pyrazine-2-carboxamide]", "Ki": 68.8},
      {"smiles": "Nc1nc(-n2nccn2)c(Cl)nc1C(=O)NCc1cnn2ccccc12", "note": "[Ex-295, 3-amino-6-chloro-N-(pyrazolo[1,5-a]pyridin-3-ylmethyl)-5-(2H-1,2,3-triazol-2-yl)pyrazine-2-carboxamide]", "Ki": 13.6},
      {"smiles": "Nc1nc(-n2nccn2)c(Cl)nc1C(=O)NCc1cccc2cnccc12", "note": "[Ex-296, 3-amino-6-chloro-N-(isoquinolin-5-ylmethyl)-5-(2H-1,2,3-triazol-2-yl)pyrazine-2-carboxamide]", "Ki": 35.6},
      {"smiles": "Nc1nc(-n2nccn2)c(Cl)nc1C(=O)NCc1cccc2ccncc12", "note": "[Ex-297, 3-amino-6-chloro-N-(isoquinolin-8-ylmethyl)-5-(2H-1,2,3-triazol-2-yl)pyrazine-2-carboxamide]", "Ki": 1.65},
      {"smiles": "Nc1nc(-n2nccn2)c(Cl)nc1C(=O)NCc1nc2ccccc2s1", "note": "[Ex-298, 3-amino-N-(1,3-benzothiazol-2-ylmethyl)-6-chloro-5-(2H-1,2,3-triazol-2-yl)pyrazine-2-carboxamide]", "Ki": 32.9},
      {"smiles": "Nc1nc(-n2nccn2)c(Cl)nc1C(=O)NCc1nc2ccccc2o1", "note": "[Ex-299, 3-amino-N-(1,3-benzoxazol-2-ylmethyl)-6-chloro-5-(2H-1,2,3-triazol-2-yl)pyrazine-2-carboxamide]", "Ki": 33.6},
      {"smiles": "Nc1nc(-n2nccn2)c(Cl)nc1C(=O)NCc1cccc2nccnc12", "note": "[Ex-300, 3-amino-6-chloro-N-(quinoxalin-5-ylmethyl)-5-(2H-1,2,3-triazol-2-yl)pyrazine-2-carboxamide]", "Ki": 44.4},
      {"smiles": "Nc1nc(-n2nccn2)c(Cl)nc1C(=O)NCc1ccnc2ccccc12", "note": "[Ex-301, 3-amino-6-chloro-N-(quinolin-4-ylmethyl)-5-(2H-1,2,3-triazol-2-yl)pyrazine-2-carboxamide]", "Ki": 182},
      {"smiles": "Nc1nc(-n2nccn2)c(Cl)nc1C(=O)NCc1nc2ccccc2[nH]1", "note": "[Ex-302, 3-amino-N-(1H-benzimidazol-2-ylmethyl)-6-chloro-5-(2H-1,2,3-triazol-2-yl)pyrazine-2-carboxamide]", "Ki": 28.3},
      {"smiles": "Nc1ccccc1CNC(=O)c1nc(Cl)c(-n2nccn2)nc1N", "note": "[Ex-303, 3-amino-N-(2-aminobenzyl)-6-chloro-5-(2H-1,2,3-triazol-2-yl)pyrazine-2-carboxamide]", "Ki": 14.4},
      {"smiles": "Nc1cccc(F)c1CNC(=O)c1nc(Cl)c(-n2nccn2)nc1N", "note": "[Ex-304, 3-amino-N-(2-amino-6-fluorobenzyl)-6-chloro-5-(2H-1,2,3-triazol-2-yl)pyrazine-2-carboxamide]", "Ki": 3.6},
      {"smiles": "Nc1nc(-n2nccn2)c(Cl)nc1C(=O)NCc1cnc2ccccn12", "note": "[Ex-305, 3-amino-6-chloro-N-(imidazo[1,2-a]pyridin-3-ylmethyl)-5-(2H-1,2,3-triazol-2-yl)pyrazine-2-carboxamide]", "Ki": 49.5},
      {"smiles": "Nc1nc(-n2nccn2)c(Cl)nc1C(=O)NCc1ccc2ccccc2n1", "note": "[Ex-306, 3-amino-6-chloro-N-(quinolin-2-ylmethyl)-5-(2H-1,2,3-triazol-2-yl)pyrazine-2-carboxamide]", "Ki": 48.6},
      {"smiles": "Nc1nc(-n2nccn2)c(Cl)nc1C(=O)NCc1cc2ccccc2cn1", "note": "[Ex-307, 3-amino-6-chloro-N-(isoquinolin-3-ylmethyl)-5-(2H-1,2,3-triazol-2-yl)pyrazine-2-carboxamide]", "Ki": 21.6},
      {"smiles": "Nc1nc(-n2nccn2)c(Cl)nc1C(=O)NCc1cc2ccccc2[nH]1", "note": "[Ex-308, 3-amino-6-chloro-N-(1H-indol-2-ylmethyl)-5-(2H-1,2,3-triazol-2-yl)pyrazine-2-carboxamide]", "Ki": 34.5},
      {"smiles": "Nc1nc(-n2nccn2)c(Cl)nc1C(=O)NCc1cccc2ncccc12", "note": "[Ex-309, 3-amino-6-chloro-N-(quinolin-5-ylmethyl)-5-(2H-1,2,3-triazol-2-yl)pyrazine-2-carboxamide]", "Ki": 180},
      {"smiles": "Nc1nc(-n2nccn2)c(Cl)nc1C(=O)NCc1cn2ccsc2n1", "note": "[Ex-310, 3-amino-6-chloro-N-(imidazo[2,1-b][1,3]thiazol-6-ylmethyl)-5-(2H-1,2,3-triazol-2-yl)pyrazine-2-carboxamide]", "Ki": 15.7},
      {"smiles": "Nc1nc(-n2nccn2)c(Cl)nc1C(=O)NCCc1cnccn1", "note": "[Ex-311, 3-amino-6-chloro-N-(2-pyrazin-2-ylethyl)-5-(2H-1,2,3-triazol-2-yl)pyrazine-2-carboxamide]", "Ki": 1160},
      {"smiles": "Nc1nc(-n2nccn2)c(Cl)nc1C(=O)N[C@@H](CO)c1ccccc1", "note": "[Ex-312, 3-amino-6-chloro-N-[(1R)-2-hydroxy-1-phenylethyl]-5-(2H-1,2,3-triazol-2-yl)pyrazine-2-carboxamide]", "Ki": 607},
      {"smiles": "Nc1nc(-n2nccn2)c(Cl)nc1C(=O)N[C@H](CO)c1ccccc1", "note": "[Ex-313, 3-amino-6-chloro-N-[(1S)-2-hydroxy-1-phenylethyl]-5-(2H-1,2,3-triazol-2-yl)pyrazine-2-carboxamide]", "Ki": 22.8},
      {"smiles": "Nc1nc(-n2nccn2)c(Cl)nc1C(=O)NCc1cccc2c1C(=O)NC2", "note": "[Ex-314, 3-amino-6-chloro-N-[(3-oxo-2,3-dihydro-1H-isoindol-4-yl)methyl]-5-(2H-1,2,3-triazol-2-yl)pyrazine-2-carboxamide]", "Ki": 3.7},
      {"smiles": "Nc1nc(-n2nccn2)c(Cl)nc1C(=O)NCCOc1ccccc1", "note": "[Ex-315, 3-amino-6-chloro-N-(2-phenoxyethyl)-5-(2H-1,2,3-triazol-2-yl)pyrazine-2-carboxamide]", "Ki": 195},
      {"smiles": "Nc1nc(-n2nccn2)c(Cl)nc1C(=O)N[C@@H]1C[C@@]1(F)c1ccccc1", "note": "[Ex-316, 3-amino-6-chloro-N-[(1R,2R)-2-fluoro-2-phenylcyclopropyl]-5-(2H-1,2,3-triazol-2-yl)pyrazine-2-carboxamide]", "Ki": 66.9},
      {"smiles": "Nc1nc(-n2nccn2)c(Cl)nc1C(=O)N[C@H]1C[C@@]1(F)c1ccccc1", "note": "[Ex-317, 3-amino-6-chloro-N-[(1S,2R)-2-fluoro-2-phenylcyclopropyl]-5-(2H-1,2,3-triazol-2-yl)pyrazine-2-carboxamide]", "Ki": 2200},
      {"smiles": "COC(=O)[C@@H](CO)NC(=O)c1nc(Cl)c(-n2nccn2)nc1N", "note": "[Ex-318, methyl N-{[3-amino-6-chloro-5-(2H-1,2,3-triazol-2-yl)pyrazin-2-yl]carbonyl}-D-serinate]", "Ki": 317},
      {"smiles": "Nc1nc(-n2nccn2)c(Cl)nc1C(=O)NCC1CCCc2cccnc21", "note": "(stereo not drawn) [Ex-319, 3-amino-6-chloro-N-(5,6,7,8-tetrahydroquinolin-8-ylmethyl)-5-(2H-1,2,3-triazol-2-yl)pyrazine-2-carboxamide]", "Ki": 77.9},
      {"smiles": "Nc1nc(-n2nccn2)c(Cl)nc1C(=O)N[C@H](CO)Cc1ccccc1", "note": "[Ex-320, 3-amino-N-[(1S)-1-benzyl-2-hydroxyethyl]-6-chloro-5-(2H-1,2,3-triazol-2-yl)pyrazine-2-carboxamide]", "Ki": 149},
      {"smiles": "Nc1nc(-n2nccn2)c(Cl)nc1C(=O)NCc1ncc[nH]1", "note": "[Ex-321, 3-amino-6-chloro-N-(1H-imidazol-2-ylmethyl)-5-(2H-1,2,3-triazol-2-yl)pyrazine-2-carboxamide]", "Ki": 70.2},
      {"smiles": "CN1CCC(NC(=O)c2nc(Cl)c(-n3nccn3)nc2N)c2ccccc21", "note": "(stereo not drawn) [Ex-322, 3-amino-6-chloro-N-(1-methyl-1,2,3,4-tetrahydroquinolin-4-yl)-5-(2H-1,2,3-triazol-2-yl)pyrazine-2-carboxamide]", "Ki": 61.9},
      {"smiles": "COC(=O)[C@@H](NC(=O)c1nc(Cl)c(-n2nccn2)nc1N)c1ccccc1", "note": "[Ex-323, methyl (2S)-({[3-amino-6-chloro-5-(2H-1,2,3-triazol-2-yl)pyrazin-2-yl]carbonyl}amino) (phenyl)ethanoate]", "Ki": 65.3},
      {"smiles": "Nc1nc(-n2nccn2)c(Cl)nc1C(=O)N[C@H](CO)c1ccccn1", "note": "[Ex-324, 3-amino-6-chloro-N-[(1S)-2-hydroxy-1-pyridin-2-ylethyl]-5-(2H-1,2,3-triazol-2-yl)pyrazine-2-carboxamide]", "Ki": 54},
      {"smiles": "Nc1nc(-n2nccn2)c(Cl)nc1C(=O)N[C@H](CO)Cc1c[nH]c2ccccc12", "note": "[Ex-325, 3-amino-6-chloro-N-[(1S)-2-hydroxy-1-(1H-indol-3-ylmethyl)ethyl]-5-(2H-1,2,3-triazol-2-yl)pyrazine-2-carboxamide]", "Ki": 337}
    ]}
  ]
}
